Experimental data as given in patent US20250000948A1, “SOLID COMPOSITIONS COMPRISING A PEPTIDE OR A PROTEIN AND AN ACYLATED AMINO ACID” (ADOCIA, priority 2021, published 2025).

Assays:
[1] = Solubilization kinetics of compacts, USP <711> paddle apparatus (Example B1); assay type: physicochemical; details: 200 mM phosphate buffer pH 6.8, 37° C., 75 rpm
Experimental: To evaluate solubilization kinetics of NaPheC6 and NaPheC8 in similar conditions, compacts are prepared in the following manner:
In a manual tablet press (LFA TDP 0 Desktop tablet press) equipped with cylindrical 8 mm diameter punches, 200 +10 mg of permeation enhancer is filled into the die cavity. Compression into cylindrical compacts of 4±0.5 mm height yields compacts with apparent volumetric mass of 1±0.2 g/mL.
These compacts are put into a capsule sinker, then dissolved using an USP <711>-compliant apparatus (type 2-Paddle apparatus). Dissolution is done into 700 mL of 200 mM phosphate buffer, pH 6.8. Temperature is set at 37° C. and agitation at 75 rpm.
Sampling of the dissolution medium followed by HPLC dosage yields the following dissolution profiles for the compounds NaPheC6 and NaPheC8, respectively: […]

Caco-2 monolayers = assay type: in vitro ADME
Experimental: An in vitro permeability assay was conducted in order to evaluate the impact of NaPheC8 on the passage of peptides through a monolayer of intestinal epithelial cells. Caco-2 cells were seeded on a polycarbonate membrane that separate basal and apical compartments of a Transwell system and cultured for 21-days.
Insulin lispro and semaglutide formulations (100 μM) were added into the apical compartment of the culture system in presence or absence of different concentrations of NaPheC8.
In vitro absorption of peptides was estimated by quantifying insulin lispro or semaglutide in the basal compartment 1 hour after the addition of formulations (quantification by ELISA).
Peptide permeability in the presence of NaPheC8, expressed as a fold-increase compared to the treatment with the peptide alone, is reported in the table below: […]

dissolved (%) ([1]; 20 seconds)	dissolved (%) ([1]; 40 seconds)	dissolved (%) ([1]; 60 seconds)	dissolved (%) ([1]; 80 seconds)	dissolved (%) ([1]; 100 seconds)	SMILES	effect on passage of peptides through Caco-2 monolayers (in words) (Caco-2 monolayers)
47%	100%	100%	100%	100%	CCCCCC(=O)N[C@@H](Cc1ccccc1)C(=O)O [NaPheC6, N-hexanoyl-Phenylalanine]	
15%	37%	57%	89%	99%	CCCCCCCC(=O)N[C@@H](Cc1ccccc1)C(=O)[O-].[Na+] [NaPheC8, sodium salt of N-octanoyl phenylalanine]	favors the passage of these peptides through Caco-2 monolayers, in a dose-dependant manner
